Measurements from patent US20230391765A1, “HETEROBIFUNCTIONAL COMPOUNDS AS DEGRADERS OF ENL” (ICAHN SCHOOL OF MEDICINE AT MOUNT SINAI, priority 2020, published 2023).

Columns and labels:
Format in all cases: cell-based
[1] = test system: ENL-independent Jurkat cells; experiment: Cell viability (CellTiter-Glo), Jurkat cells
Description: (§1) MV4; 11 (FIG. 13A), MOLM13 (FIG. 13B) and Jurkat (FIG. 13C) cells were seeded at 2×10^5 cells/mL density and treated with DMSO or indicated compounds 0.5, 1, 2 and 4 μM for 72 h. Cell viability was measured using CellTiter-Glo reagent (Promega) and relative cell viability was calculated by normalization to DMSO samples.
(§2) ENL-dependent MV4; 11 and ENL-independent Jurkat cells were seeded at 2×10^5 cells/mL density and treated with DMSO or indicated compounds at 10 nM, 100 nM, 1 μM and 10 μM for 3 days (A) or 6 days (B). Cell viability was measured using CellTiter-Glo reagent (Promega) and relative cell viability was calculated by normalization to DMSO samples.

ENL [2] = target: T1, ENL (Homo sapiens, UniProt Q03111); experiment: Western blot of ENL protein levels in MV4; 11 cells
T1 construct: Cells were lysed and expression of endogenous ENL was assessed by Western blot analysis; host or cells: MV4;11
T1 sequence (Q03111 1-559): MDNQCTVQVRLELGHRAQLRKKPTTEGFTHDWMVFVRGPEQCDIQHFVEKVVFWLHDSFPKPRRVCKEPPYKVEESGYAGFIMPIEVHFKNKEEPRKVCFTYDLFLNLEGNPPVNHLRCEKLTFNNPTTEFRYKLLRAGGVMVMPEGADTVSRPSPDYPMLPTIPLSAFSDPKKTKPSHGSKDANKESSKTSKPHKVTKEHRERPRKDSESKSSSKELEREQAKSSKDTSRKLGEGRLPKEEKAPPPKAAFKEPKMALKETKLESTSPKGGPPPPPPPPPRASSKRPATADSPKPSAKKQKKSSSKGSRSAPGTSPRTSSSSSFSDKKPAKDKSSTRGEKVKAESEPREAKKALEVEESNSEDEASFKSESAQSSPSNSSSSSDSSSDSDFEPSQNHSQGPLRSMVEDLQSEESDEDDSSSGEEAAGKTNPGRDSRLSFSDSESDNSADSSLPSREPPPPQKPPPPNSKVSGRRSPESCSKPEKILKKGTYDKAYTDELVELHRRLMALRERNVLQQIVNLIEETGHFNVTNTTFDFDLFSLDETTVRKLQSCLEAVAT
Description: MV4; 11 cells were treated with DMSO or the indicated compounds (the same panel of ENL degraders as shown in FIG. 4) at 1 μM and 10 μM for 24 h. Cells were lysed and expression of ENL was assessed by Western blot analysis.
DMSO treated cells were used as control.
MV4; 11 cells were treated with LQ076-122, or LQ081-107 at 0.3, 1, 3, 10, and 30 μM for 24 h. DMSO treated cells were used as control. Cells were lysed and expression of ENL and GAS41 was assessed by Western analysis.
MV4; 11 cells were treated with DMSO or the indicated compounds at 1 μM and 10 μM for 6 h. Cells were lysed and expression of endogenous ENL was assessed by Western blot analysis.
Cells were treated with 1 μM of ENL degrader with or without 1 μM proteasome inhibitor MG132 for 6 h.
(§3) ENL degraders were dissolved in DMSO. DMSO with no degraders was used as the control. 1×10^6 leukemia cells were seeded in 5 mL medium. For prescreening of compounds, each test compound was added to the medium at 1 μM and 10 μM. Cells were collected after 24 h treatment. For the concentration-dependent treatment, candidate compounds were added to the medium at a series of concentration as indicated in figures. Cells were collected after 24 h treatment. For the time-course treatment, candidate compounds were added to the medium at a final concentration of 4 μM (MV4; 11 cells) or 8 μM (MOLM13 cells). Cells were collected at the indicated timepoints (in hours: 12, 16, 20, 24 and 36 h).
(§4) After ENL degrader treatment, cells were collected, lysed, and total cell lysates were used for Western blot. The following primary antibodies were used: ENL (Cell Signaling Technology), GAS41 (Santa Cruz), GAPDH (Santa Cruz), β-actin (Sigma). Blots were detected using HRP-conjugated secondary antibodies.

[3] = test system: ENL-dependent MOLM13 leukemia cells; experiment: Cell viability (CellTiter-Glo), MOLM13 cells; conditions: MOLM13 cells, 0.5, 1, 2 and 4 μM for 72 h
Description: as §1
(§5) MV4; 11 or MOLM13 cells were seeded at 0.2×10^6 cells/mL density. Cells were treated with DMSO or ENL degraders at indicated concentrations. Each treatment was done in triplicates. After 72 h treatment, 100 μL of cell suspension from each treatment was mixed with 25 μL of CellTiter-Glo reagent (Promega) and incubated for 10 min before the luminescence signals were detected on a plate reader.

ENL target genes = experiment: RT-qPCR of ENL target genes in MOLM13 cells
Description: MOLM13 cells were treated with LQ076-122 (FIG. 14A) and LQ081-108 (FIG. 14B) at 0.5, 1, 2, 4, and 8 μM for 24 h. […] RT-qPCR analysis was performed to detect the mRNA levels of selected ENL target genes.
Total RNA was extracted using the RNeasy Plus kit (Qiagen) and reverse-transcribed using the iScript cDNA Synthesis kit (Bio-Rad). RT-qPCR was performed using the Power SYBR Green PCR Master Mix (Applied Biosystems) on the CFX96 Real-Time PCR system (Bio-Rad). Gene expressions were calculated following normalization to 18s rRNA amounts using the comparative cycle threshold (Ct) method.

[4] = test system: ENL-dependent MV4; 11 cells; experiment: Cell viability (CellTiter-Glo), MV4; 11 cells
Description: as §1
ENL-dependent MV4; 11 cells were seeded at 2×10^5 cells/mL density and treated with DMSO or the indicated compounds at 0, 1.25, 2.5, 5 and 10 μM for 72 h. Cell viability was measured using CellTiter-Glo reagent (Promega) and relative cell viability was calculated by normalization to DMSO samples.
as §2, §5

ENL [5] = target: T1, ENL; experiment: Western blot of ENL protein levels in MOLM13 cells
Description: MOLM13 cells were treated with LQ076-122 or LQ081-108 at 0, 0.25, 0.5, 1, 1.5, 2, 2.5, 3, 4 and 8 μM for 24 h.
MOLM13 cells were treated with DMSO or 8 μM of LQ076-122 for 12, 16, 20, 24 and 36 h.
MV4; 11, MOLM13 and Jurkat cells were treated with LQ108-69, LQ108-71, LQ108-72, LQ126-62 and LQ126-63 at 0, 1 nM, 10 nM, 100 nM, 1 μM, and 10 μM doses for 6 h. DMSO was used as negative control.
as §3, §4

ENL [6] = target: T1, ENL; experiment: Western blot of ENL protein levels in Jurkat cells
Source text: […] DMSO was used as negative control.
as §4

[7] = Jurkat cells, 0.5, 1, 2 and 4 μM for 72 h
[8] = 11 cells, 0.3, 1, 3 and 10 μM for 12 and 24 h
[9] = 11 cells, 0.5, 1, 2 and 4 μM for 72 h

Compound	suppression of cell growth (relative cell viability) [1, 7]	reduction of ENL protein levels (ENL [2]; [8])	suppression of cell growth (relative cell viability) [3]	suppression of cell growth (relative cell viability) [4, 9]	also measured
Cc1ncsc1-c1ccc([C@H](C)NC(=O)[C@H]2C[C@H](O)CN2C(=O)[C@@H](NC(=O)CCCCCCCCCCNC(=O)c2ccc(C(=O)Nc3ccc4[nH]c(CN5CCC[C@@H]5C)nc4c3)cc2)C(C)(C)C)cc1 [LQ081-106]	did not significantly affect cell growth	did not affect ENL protein levels	did not significantly affect cell growth	did not significantly affect cell growth	ENL target gene expression (mRNA levels) (ENL target genes; MOLM13 cells, 8 μM for 24 h): did not dramatically affect these genes
Cc1ncsc1-c1ccc(CNC(=O)[C@H]2C[C@H](O)CN2C(=O)[C@@H](NC(=O)CCCCCCCCCCNC(=O)c2ccc(C(=O)Nc3ccc4[nH]c(CN5CCC[C@@H]5C)nc4c3)cc2)C(C)(C)C)cc1 [LQ081-107]		did not affect ENL protein levels			ENL target gene expression (mRNA levels) (ENL target genes; MOLM13 cells, 8 μM for 24 h): did not dramatically affect these genes
Cc1ncsc1-c1ccc([C@H](C)NC(=O)[C@@H]2C[C@@H](O)CN2C(=O)[C@@H](NC(=O)CCCCCCCCCCNC(=O)c2ccc(C(=O)Nc3ccc4[nH]c(CN5CCC[C@@H]5C)nc4c3)cc2)C(C)(C)C)cc1 [LQ081-108, N^1-(11-(((S)-1-((2S,4R)-4-hydroxy-2-(((S)-1-(4-(4-methylthiazol-5-yl)phenyl)ethyl)carbamoyl)pyrrolidin-1-yl)-3,3-dimethyl-1-oxobutan-2-yl)amino)-11-oxoundecyl)-N^4-(2-(((S)-2-methylpyrrolidin-1-yl)methyl)-1H-benzo[d]imidazol-5-yl)terephthalamide]		reduced ENL protein levels in a concentration- and time-dependent manner	selectively suppressed cell growth	selectively suppressed cell growth	reduction of ENL protein levels (ENL [2]; 11 cells, 0-8 μM for 24 h): reduced ENL protein levels in a concentration-dependent manner; reduction of ENL protein levels (ENL [2]; 11 cells, 10 μM, 24 h): effective in reducing ENL protein levels; ENL target gene expression (mRNA levels) (ENL target genes; MOLM13 cells, 0.5, 1, 2, 4 and 8 μM for 24 h): reduced ENL target gene expression in a concentration-dependent manner; reduction of ENL protein levels (ENL [5]; 0-8 μM for 24 h): reduced ENL protein levels in a concentration-dependent manner
Cc1ncsc1-c1ccc([C@H](C)NC(=O)[C@H]2C[C@H](O)CN2C(=O)[C@@H](NC(=O)CCCCCCCCCCCNC(=O)c2ccc(C(=O)Nc3ccc4[nH]c(CN5CCC[C@@H]5C)nc4c3)cc2)C(C)(C)C)cc1 [LQ081-158]	did not significantly affect cell growth		did not significantly affect cell growth	did not significantly affect cell growth	
Cc1ncsc1-c1ccc([C@H](C)NC(=O)[C@@H]2C[C@@H](OCc3ccccc3)CN2C(=O)[C@@H](NC(=O)CCCCCCCCCCNC(=O)c2ccc(C(=O)Nc3ccc4[nH]c(CN5CCC[C@@H]5C)nc4c3)cc2)C(C)(C)C)cc1 [LQ108-141]	did not significantly affect cell growth		did not significantly affect cell growth	did not significantly affect cell growth	
Cc1ncsc1-c1ccc([C@H](C)NC(=O)C2C[C@@H](OCc3ccccc3)CN2C(=O)[C@@H](NC(=O)CCCCCCCCCCCNC(=O)c2ccc(C(=O)Nc3ccc4[nH]c(CN5CCC[C@@H]5C)nc4c3)cc2)C(C)(C)C)cc1 (stereo partly drawn) [LQ108-142]	did not significantly affect cell growth		did not significantly affect cell growth	did not significantly affect cell growth	
Cc1ncsc1-c1ccc(CNC(=O)[C@@H]2C[C@@H](O)CN2C(=O)[C@@H](NC(=O)CCCCCCCCCCNC(=O)c2ccc3c(c2)[C@H](NC(=O)c2cc(-c4ccc(C(=O)N(C)C)c(O)c4)on2)CC3)C(C)(C)C)cc1 [LQ126-63, 5-(4-(dimethylcarbamoyl)-3-hydroxyphenyl)-N—((R)-6-((11-(((S)-1-((2S,4R)-4-hydroxy-2-((4-(4-methylthiazol-5-yl)benzyl)carbamoyl)pyrrolidin-1-yl)-3,3-dimethyl-1-oxobutan-2-yl)amino)-11-oxoundecyl)carbamoyl)-2,3-dihydro-1H-inden-1-yl)isoxazole-3-carboxamide]					reduction of ENL protein levels (ENL [6]; 1 nM to 10 μM for 6 h): reduced ENL protein levels in a concentration-dependent manner; ENL protein level after long treatment (ENL [6]; 1 μM for 48 and 72 h): maintained the ENL protein at low levels; suppression of cell growth (relative cell viability) ([1]; Jurkat cells, 10 nM to 10 μM, 3 days and 6 days): did not affect the growth of ENL-independent Jurkat cells; reduction of ENL protein levels (ENL [2]; 11 cells, 1 nM to 10 μM for 6 h): reduced ENL protein levels in a concentration-dependent manner; effect of proteasome inhibitor MG132 on the ENL degradation induced by the degrader (ENL [2]; 11 cells, 1 μM degrader with or without 1 μM MG132 for 6 h): partially blocks the ENL degradation; ENL protein level after long treatment (ENL [2]; 11 cells, 1 μM for 48 and 72 h): maintained the ENL protein at low levels; reduction of ENL protein levels (ENL [5]; 1 nM to 10 μM for 6 h): reduced ENL protein levels in a concentration-dependent manner; ENL protein level after long treatment (ENL [5]; 1 μM for 48 and 72 h): maintained the ENL protein at low levels; suppression of cell growth (relative cell viability) ([4]; 11 cells, 100 nM dose, 3 days and 6 days): strongly suppressed MV4; 11 cell growth; suppression of cell growth (relative cell viability) ([4]; 11 cells, 1.25, 2.5, 5 and 10 μM for 72 h): significantly suppressed MV4; 11 cell growth at low micromolar concentration
